Measured values: US20240261398A1 (priority 2018, published 2024)
Where a name gives a salt, the structure may show the parent alone. Read-outs that look alike come from different tables or passages of the source.

Assays:
[1] = tested on: A/California/07/2009 virus (H1N1; CA07); set-up: species or system BALB/c mice; settings: mouse, in vivo
[2] = tested on: A/California/07/2009 virus (H1N1; CA07); set-up: species or system BALB/c mice; settings: mouse, in vivo; remark: listed apart in the source
influenza virus = type: in vivo, mice
Ebola GP protein = type: in vivo, BALB/c mice; settings: for Mean value of antibody titers, Vaccine + compound: Ebola VLP 1 μg/dose + compound, i.m. twice, serum two weeks after second immunization, mean of 4 mice; for Antibody titer ratio (a): [VLP + candidate compound]/[VLP + AddaVax]; for Mean value of antibody titers, Only compound (c): compound alone, mice treated as in the influenza adjuvant screening

CCN(Cc1cccc(S(=O)(=O)[O-])c1)c1ccc(C(=C2C=CC(=[N+](CC)Cc3cccc(S(=O)(=O)[O-])c3)C=C2)c2ccccc2S(=O)(=O)[O-])cc1.[Na+].[Na+]
Antibody titers in primary screening, Vaccine + compound [1]: 1333.33
Relative ratio of antibody titer to alum (compound/alum), primary screening [1]: 0.69
Antibody titers in secondary screening, Vaccine + compound [2]: 990
Relative ratio of antibody titer to alum (compound/alum), secondary screening [2]: 1.65

O.O=P([O-])([O-])OCC(O)CO.[Ca+2] (centres unmarked)
Antibody titers (IgG) (influenza virus; mouse, in vivo): 261.25
Antibody titers in primary screening, Vaccine + compound [1]: 1920.00
Relative ratio of antibody titer to alum (compound/alum), primary screening [1]: 1.71
Antibody titers in secondary screening, Vaccine + compound [2]: 4800
Relative ratio of antibody titer to alum (compound/alum), secondary screening [2]: 3.33

CCN(Cc1cccc(S(=O)(=O)[O-])c1)c1ccc(C(=C2C=CC(=[N+](CC)Cc3cccc(S(=O)(=O)[O-])c3)C=C2)c2ccc(O)cc2S(=O)(=O)[O-])cc1.[Na+].[Na+]
Antibody titers in primary screening, Vaccine + compound [1]: 2133.33
Relative ratio of antibody titer to alum (compound/alum), primary screening [1]: 1.00
Antibody titers in secondary screening, Vaccine + compound [2]: 440
Relative ratio of antibody titer to alum (compound/alum), secondary screening [2]: 0.73

CC1(C)[C@@H](O[C@H]2O[C@H](C(=O)O)[C@@H](O)[C@H](O)[C@H]2O[C@@H]2O[C@H](C(=O)O)[C@@H](O)[C@H](O)[C@H]2O)CC[C@]2(C)[C@H]3C(=O)C=C4[C@@H]5C[C@@](C)(C(=O)O)CC[C@]5(C)CC[C@@]4(C)[C@]3(C)CC[C@@H]12
Antibody titers in primary screening, Vaccine + compound [1]: 5973.33
Antibody titers in secondary screening, Vaccine + compound [2]: 2560

O=C([O-])[C@H](O)[C@@H](O)[C@H](O)[C@H](O)CO.O=C([O-])[C@H](O)[C@@H](O)[C@H](O)[C@H](O)CO.[Fe+2]
Antibody titers in primary screening, Vaccine + compound [1]: 853.33
Relative ratio of antibody titer to alum (compound/alum), primary screening [1]: 0.76
Antibody titers in secondary screening, Vaccine + compound [2]: 3040
Relative ratio of antibody titer to alum (compound/alum), secondary screening [2]: 1.90

O=C([O-])[C@H](O)[C@@H](O)[C@H](O)[C@H](O)CO.[Na+]
Mean value of antibody titers, Only compound [2]: <10
Mean value of antibody titers, Vaccine + compound [2]: 1600.00
Relative ratio of antibody titer to alum (Compound/alum) [2]: 1.00

O=S([O-])O.[Na+]
Mean value of antibody titers, Only compound [2]: <10
Mean value of antibody titers, Vaccine + compound [2]: 730.00
Relative ratio of antibody titer to alum (Compound/alum) [2]: 0.55

CC(C)=CCC[C@@H](C)CC=O
Antibody titers in primary screening, Vaccine + compound [1]: 333.33
Antibody titers in secondary screening, Vaccine + compound [2]: 35

CC(C)=CCCC(C)CCO (racemic) [(+/−)-Citronellol]
Antibody titers in primary screening, Vaccine + compound [1]: 960.00
Antibody titers in secondary screening, Vaccine + compound [2]: 260

CC(/C=C/C=C(C)/C=C/C(=O)O)=C\C=C\C=C(C)\C=C\C=C(C)\C=C\C(=O)O (stereo in doubt) [Norbixin]
Antibody titers (IgG) (influenza virus; mouse, in vivo): 340
Antibody titers in primary screening, Vaccine + compound [1]: 7680.00
Relative ratio of antibody titer to alum (compound/alum), primary screening [1]: 8.00
Relative ratio of antibody titer to alum (compound/alum), secondary screening [2]: 5.14
virus-specific antibody titers compared with the alum adjuvant [2]: equal to or higher than the alum adjuvant did

CC(C)C1=CC2=CC[C@@H]3[C@](C)(CCC[C@@]3(C)C(=O)O)[C@H]2CC1 [Abietic acid]
Antibody titers in primary screening, Vaccine + compound [1]: 533.33
Antibody titers in secondary screening, Vaccine + compound [2]: 1280

Cc1c(C(=O)O)c(O)cc2c1C(=O)c1c(O)c([C@@H]3O[C@H](CO)[C@@H](O)[C@H](O)[C@H]3O)c(O)c(O)c1C2=O [Carminic acid]
Antibody titers in primary screening, Vaccine + compound [1]: 746.67
Antibody titers in secondary screening, Vaccine + compound [2]: 960

CC(/C=C/C=C(\C)C(=O)O[C@@H]1O[C@H](CO[C@@H]2O[C@H](CO)[C@@H](O)[C@H](O)[C@H]2O)[C@@H](O)[C@H](O)[C@H]1O)=C\C=C\C=C(C)\C=C\C=C(/C)C(=O)O[C@@H]1O[C@H](CO[C@@H]2O[C@H](CO)[C@@H](O)[C@H](O)[C@H]2O)[C@@H](O)[C@H](O)[C@H]1O [Crocin]
Antibody titers in primary screening, Vaccine + compound [1]: 1066.67
Antibody titers in secondary screening, Vaccine + compound [2]: 480

CCO [Ethanol]
Mean value of antibody titers, Only compound [2]: <10
Mean value of antibody titers, Vaccine + compound [2]: 400.00
Relative ratio of antibody titer to alum (Compound/alum) [2]: 0.56
Mean value of antibody titers, Vaccine + compound (Ebola GP protein): 140.00
Antibody titer ratio (a) (Ebola GP protein): 0.23
Mean value of antibody titers, Only compound (c) (Ebola GP protein): <10

CC(C)=CCC/C(C)=C/COC=O [Geranyl Formate]
Antibody titers in primary screening, Vaccine + compound [1]: 2560.00
Antibody titers in secondary screening, Vaccine + compound [2]: 960

COc1ccc([C@@H]2CC(=O)c3c(O)cc(O[C@@H]4O[C@H](CO[C@@H]5O[C@@H](C)[C@H](O)[C@@H](O)[C@H]5O)[C@@H](O)[C@H](O)[C@H]4O)cc3O2)cc1O [Hesperidin]
Antibody titers in primary screening, Vaccine + compound [1]: 3840.00
Relative ratio of antibody titer to alum (compound/alum), primary screening [1]: 1.13
Antibody titers in secondary screening, Vaccine + compound [2]: 2240
Relative ratio of antibody titer to alum (compound/alum), secondary screening [2]: 4.00

CC(CC=O)CCCC(C)(C)O (centres unmarked) [Hydroxycitronellal]
Antibody titers in primary screening, Vaccine + compound [1]: 2773.33
Antibody titers in secondary screening, Vaccine + compound [2]: 1280

O=C1/C(=C2\Nc3ccc(S(=O)(=O)[O-])cc3C2=O)Nc2ccc(S(=O)(=O)[O-])cc21.[Na+].[Na+] [Indigo Carmine]
Antibody titers in primary screening, Vaccine + compound [1]: 1280.00
Relative ratio of antibody titer to alum (compound/alum), primary screening [1]: 1.50
Antibody titers in secondary screening, Vaccine + compound [2]: 485
Relative ratio of antibody titer to alum (compound/alum), secondary screening [2]: 0.81

CC=Cc1ccc(O)c(OC)c1 [Isoeugenol]
Antibody titers in primary screening, Vaccine + compound [1]: 2986.67
Antibody titers in secondary screening, Vaccine + compound [2]: 140

c1ccc2cnccc2c1 [Isoquinoline]
Antibody titers in primary screening, Vaccine + compound [1]: 1493.33
Antibody titers in secondary screening, Vaccine + compound [2]: 1200

COC(=O)c1ccccc1N [Methyl Anthranilate]
Antibody titers in primary screening, Vaccine + compound [1]: 693.33
Antibody titers in secondary screening, Vaccine + compound [2]: 2240

C[C@@H]1O[C@@H](O[C@H]2[C@H](Oc3cc(O)c4c(c3)O[C@H](c3ccc(O)cc3)CC4=O)O[C@H](CO)[C@@H](O)[C@@H]2O)[C@H](O)[C@H](O)[C@H]1O [Naringin]
Antibody titers in primary screening, Vaccine + compound [1]: 2133.33
Antibody titers in secondary screening, Vaccine + compound [2]: 2240

COC(=O)[C@H](Cc1ccccc1)NC(=O)[C@H](CC(=O)O)NCCC(C)(C)C [Neotame]
Antibody titers in primary screening, Vaccine + compound [1]: 2560.00
Relative ratio of antibody titer to alum (compound/alum), primary screening [1]: 2.00
Antibody titers in secondary screening, Vaccine + compound [2]: 720
Relative ratio of antibody titer to alum (compound/alum), secondary screening [2]: 1.00
virus-specific antibody titers compared with the alum adjuvant [2]: equal to or higher than the alum adjuvant did

[Cl-].[K+] [Potassium chloride]
Mean value of antibody titers, Only compound [2]: <10
Mean value of antibody titers, Vaccine + compound [2]: 2920.00
Relative ratio of antibody titer to alum (Compound/alum) [2]: 1.83

Cc1cc2nc3c(=O)[nH]c(=O)nc-3n(C[C@H](O)[C@H](O)[C@H](O)CO)c2cc1C [Riboflavin]
Antibody titers (IgG) (influenza virus; nasal immunization with vaccine + compound, 100 μg/dose (saponin 10 μg/dose), Day 0, 14, 28): 880
Antibody titers in primary screening, Vaccine + compound [1]: 2560.00
Antibody titers in secondary screening, Vaccine + compound [2]: 2240

C[C@@H]1O[C@@H](OC[C@H]2O[C@@H](Oc3c(-c4ccc(O)c(O)c4)oc4cc(O)cc(O)c4c3=O)[C@H](O)[C@@H](O)[C@@H]2O)[C@H](O)[C@H](O)[C@H]1O [Rutin]
Antibody titers in primary screening, Vaccine + compound [1]: 2560.00
Antibody titers in secondary screening, Vaccine + compound [2]: 1320

CC(=O)[O-].[Na+] [Sodium acetate]
Mean value of antibody titers, Only compound [2]: <10
Mean value of antibody titers, Vaccine + compound [2]: 740.00
Relative ratio of antibody titer to alum (Compound/alum) [2]: 0.66

O=C([O-])c1ccccc1.[Na+] [Sodium benzoate]
Mean value of antibody titers, Only compound [2]: <10
Mean value of antibody titers, Vaccine + compound [2]: 1600.00
Relative ratio of antibody titer to alum (Compound/alum) [2]: 1.21
virus-specific antibody titers compared with the alum adjuvant [2]: equal to or higher than the alum adjuvant did

[Br-].[Na+] [Sodium bromide]
Mean value of antibody titers, Only compound [2]: <10
Mean value of antibody titers, Vaccine + compound [2]: 970.00
Relative ratio of antibody titer to alum (Compound/alum) [2]: 0.87

O=S([O-])[O-].[Na+].[Na+] [Sodium sulfite]
Mean value of antibody titers, Only compound [2]: <10
Mean value of antibody titers, Vaccine + compound [2]: 2080.00
Relative ratio of antibody titer to alum (Compound/alum) [2]: 1.30
virus-specific antibody titers compared with the alum adjuvant [2]: equal to or higher than the alum adjuvant did

O=S([O-])([O-])=S.[Na+].[Na+] [Sodium thiosulfate]
Mean value of antibody titers, Only compound [2]: <10
Mean value of antibody titers, Vaccine + compound [2]: 1320.00
Relative ratio of antibody titer to alum (Compound/alum) [2]: 1.00

Cn1cnc2c1c(=O)[nH]c(=O)n2C [Theobromine]
Antibody titers in primary screening, Vaccine + compound [1]: 1333.33
Antibody titers in secondary screening, Vaccine + compound [2]: 1440

OC[C@@H](O)[C@H](O)[C@@H](O)CO [Xylitol]
Mean value of antibody titers, Only compound [2]: <10
Mean value of antibody titers, Vaccine + compound [2]: 560.00
Relative ratio of antibody titer to alum (Compound/alum) [2]: 0.35

[O]=[Zn] [Zinc oxide]
Mean value of antibody titers, Vaccine + compound (Ebola GP protein): 400.00
Antibody titer ratio (a) (Ebola GP protein): 0.67
Mean value of antibody titers, Only compound (c) (Ebola GP protein): <10

CC1=C(/C=C/C(C)=C/C=C/C(C)=C/C=C/C=C(C)/C=C/C=C(C)/C=C/C2=C(C)CCCC2(C)C)C(C)(C)CCC1 [β-Carotene]
Antibody titers in primary screening, Vaccine + compound [1]: 960.00
Antibody titers in secondary screening, Vaccine + compound [2]: 1120

OC[C@H]1O[C@@H]2O[C@H]3[C@H](O)[C@@H](O)[C@@H](O[C@H]4[C@H](O)[C@@H](O)[C@@H](O[C@H]5[C@H](O)[C@@H](O)[C@@H](O[C@H]6[C@H](O)[C@@H](O)[C@@H](O[C@H]7[C@H](O)[C@@H](O)[C@@H](O[C@H]8[C@H](O)[C@@H](O)[C@@H](O[C@H]1[C@H](O)[C@H]2O)O[C@@H]8CO)O[C@@H]7CO)O[C@@H]6CO)O[C@@H]5CO)O[C@@H]4CO)O[C@@H]3CO [β-Cyclodextrin]
Antibody titers in primary screening, Vaccine + compound [1]: 373.33
Relative ratio of antibody titer to alum (compound/alum), primary screening [1]: 0.22
Antibody titers in secondary screening, Vaccine + compound [2]: 1440
Relative ratio of antibody titer to alum (compound/alum), secondary screening [2]: 0.90
